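A five-concentration, 48-hour dose response in 96-well plates underlies each endpoint, interpolated linearly between surrounding concentrations. TGI is the concentration that stops growth completely.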
What was measured:
Test in all cases: NCI anticancer screen, dose series, 48 h
K-562 leukemia = system: K-562 leukemia
SK-MEL-5 melanoma = system: SK-MEL-5 melanoma
LXFL 529 NSCLC = system: LXFL 529 NSCLC
OVCAR-4 ovarian = system: OVCAR-4 ovarian
IGROV1 ovarian = system: IGROV1 ovarian
HT29 colon = system: HT29 colon
SF-268 CNS = system: SF-268 CNS
SW-620 colon = system: SW-620 colon
NCI-H522 lung = system: NCI-H522 lung
UACC-62 melanoma = system: UACC-62 melanoma
OVCAR-3 ovarian = system: OVCAR-3 ovarian
SR leukemia = system: SR leukemia
OVCAR-8 ovarian = system: OVCAR-8 ovarian
M14 melanoma = system: M14 melanoma
DMS 114 small cell lung = system: DMS 114 small cell lung
NCI-H23 lung = system: NCI-H23 lung
SK-MEL-28 melanoma = system: SK-MEL-28 melanoma
M19-MEL melanoma = system: M19-MEL melanoma
MALME-3M melanoma = system: MALME-3M melanoma
SK-OV-3 ovarian = system: SK-OV-3 ovarian
SF-295 CNS = system: SF-295 CNS
SNB-78 CNS = system: SNB-78 CNS
KM20L2 colon = system: KM20L2 colon
HOP-18 NSCLC = system: HOP-18 NSCLC
ACHN renal = system: ACHN renal
CAKI-1 renal = system: CAKI-1 renal
UO-31 renal = system: UO-31 renal
SNB-75 CNS = system: SNB-75 CNS
HOP-92 NSCLC = system: HOP-92 NSCLC
RXF 393 renal = system: RXF 393 renal
KM12 colon = system: KM12 colon
A498 renal = system: A498 renal
HOP-62 NSCLC = system: HOP-62 NSCLC
CCRF-CEM leukemia = system: CCRF-CEM leukemia
NCI-H226 lung = system: NCI-H226 lung
A549 NSCLC = system: A549 NSCLC
EKVX NSCLC = system: EKVX NSCLC
TK-10 renal = system: TK-10 renal
LOX IMVI melanoma = system: LOX IMVI melanoma
DLD-1 colon = system: DLD-1 colon
HL-60(TB) leukemia = system: HL-60(TB) leukemia
XF 498 CNS = system: XF 498 CNS
NCI-H460 lung = system: NCI-H460 lung
COLO 205 colon = system: COLO 205 colon
HCC-2998 colon = system: HCC-2998 colon
UACC-257 melanoma = system: UACC-257 melanoma
786-0 renal = system: 786-0 renal
SF-539 CNS = system: SF-539 CNS
U251 CNS = system: U251 CNS
SN12C renal = system: SN12C renal
SNB-19 CNS = system: SNB-19 CNS
MOLT-4 leukemia = system: MOLT-4 leukemia
HCT-116 colon = system: HCT-116 colon
DMS 273 small cell lung = system: DMS 273 small cell lung
HCT-15 colon = system: HCT-15 colon
OVCAR-5 ovarian = system: OVCAR-5 ovarian
SK-MEL-2 melanoma = system: SK-MEL-2 melanoma
RPMI-8226 leukemia = system: RPMI-8226 leukemia

SMILES: CSc1nc2c(nc(N)n2C2OC(CO)C(O)C(O)C2O)c(=O)n1C (stereo not given)
- TGI (K-562 leukemia): > 100 µM
- TGI (SK-MEL-5 melanoma): > 100 µM
- TGI (LXFL 529 NSCLC): > 100 µM
- TGI (OVCAR-4 ovarian): > 100 µM
- TGI (IGROV1 ovarian): > 100 µM
- TGI (HT29 colon): > 100 µM
- TGI (SF-268 CNS): > 100 µM
- TGI (SW-620 colon): > 100 µM
- TGI (NCI-H522 lung): > 100 µM
- TGI (UACC-62 melanoma): > 100 µM
- TGI (OVCAR-3 ovarian): > 100 µM
- TGI (SR leukemia): > 100 µM
- TGI (OVCAR-8 ovarian): > 100 µM
- TGI (M14 melanoma): > 100 µM
- TGI (DMS 114 small cell lung): > 100 µM
- TGI (NCI-H23 lung): > 100 µM
- TGI (SK-MEL-28 melanoma): > 100 µM
- TGI (M19-MEL melanoma): > 100 µM
- TGI (MALME-3M melanoma): > 100 µM
- TGI (SK-OV-3 ovarian): > 100 µM
- TGI (SF-295 CNS): > 100 µM
- TGI (SNB-78 CNS): > 100 µM
- TGI (KM20L2 colon): > 100 µM
- TGI (HOP-18 NSCLC): > 100 µM
- TGI (ACHN renal): > 100 µM
- TGI (CAKI-1 renal): > 100 µM
- TGI (UO-31 renal): > 100 µM
- TGI (SNB-75 CNS): > 100 µM
- TGI (HOP-92 NSCLC): > 100 µM
- TGI (RXF 393 renal): > 100 µM
- TGI (KM12 colon): > 100 µM
- TGI (A498 renal): > 100 µM
- TGI (HOP-62 NSCLC): > 100 µM
- TGI (CCRF-CEM leukemia): > 100 µM
- TGI (NCI-H226 lung): > 100 µM
- TGI (A549 NSCLC): > 100 µM
- TGI (EKVX NSCLC): > 100 µM
- TGI (TK-10 renal): > 100 µM
- TGI (LOX IMVI melanoma): > 100 µM
- TGI (DLD-1 colon): > 100 µM
- TGI (HL-60(TB) leukemia): > 100 µM
- TGI (XF 498 CNS): > 100 µM
- TGI (NCI-H460 lung): > 100 µM
- TGI (COLO 205 colon): > 100 µM
- TGI (HCC-2998 colon): > 100 µM
- TGI (UACC-257 melanoma): > 100 µM
- TGI (786-0 renal): > 100 µM
- TGI (SF-539 CNS): > 100 µM
- TGI (U251 CNS): > 100 µM
- TGI (SN12C renal): > 100 µM
- TGI (SNB-19 CNS): > 100 µM
- TGI (MOLT-4 leukemia): > 100 µM
- TGI (HCT-116 colon): > 100 µM

SMILES: O=C(/C=C/c1ccccc1F)c1ccc([N+](=O)[O-])cc1
- TGI (K-562 leukemia): 34.8 µM
- TGI (LXFL 529 NSCLC): 40.7 µM
- TGI (OVCAR-4 ovarian): 89.7 µM
- TGI (IGROV1 ovarian): 63.9 µM
- TGI (HT29 colon): 39.9 µM
- TGI (SF-268 CNS): > 100 µM
- TGI (SW-620 colon): 84 µM
- TGI (UACC-62 melanoma): 81.2 µM
- TGI (OVCAR-3 ovarian): 77.9 µM
- TGI (OVCAR-8 ovarian): 73.5 µM
- TGI (M14 melanoma): 72.6 µM
- TGI (DMS 114 small cell lung): 44 µM
- TGI (NCI-H23 lung): > 100 µM
- TGI (SK-MEL-28 melanoma): 43.2 µM
- TGI (M19-MEL melanoma): 50.5 µM
- TGI (MALME-3M melanoma): 70 µM
- TGI (SK-OV-3 ovarian): > 100 µM
- TGI (SF-295 CNS): 75.6 µM
- TGI (SNB-78 CNS): > 100 µM
- TGI (KM20L2 colon): > 100 µM
- TGI (HOP-18 NSCLC): > 100 µM
- TGI (ACHN renal): > 100 µM
- TGI (CAKI-1 renal): 85.4 µM
- TGI (UO-31 renal): 39.8 µM
- TGI (SNB-75 CNS): 42.6 µM
- TGI (HOP-92 NSCLC): 45.5 µM
- TGI (RXF 393 renal): 49.8 µM
- TGI (HOP-62 NSCLC): > 100 µM
- TGI (A549 NSCLC): > 100 µM
- TGI (EKVX NSCLC): > 100 µM
- TGI (TK-10 renal): > 100 µM
- TGI (LOX IMVI melanoma): 15.5 µM
- TGI (DLD-1 colon): 39.1 µM
- TGI (XF 498 CNS): 58.9 µM
- TGI (NCI-H460 lung): 93 µM
- TGI (DMS 273 small cell lung): > 100 µM
- TGI (COLO 205 colon): > 100 µM
- TGI (HCC-2998 colon): 30.3 µM
- TGI (786-0 renal): > 100 µM
- TGI (U251 CNS): 31.1 µM
- TGI (HCT-15 colon): 43.8 µM
- TGI (SN12C renal): > 100 µM

SMILES: O=C(OCc1ccccc1)N1N=NC2C1C1CC(OCc3ccccc3)(OCc3ccccc3)C2O1 (stereo not given)
- TGI (K-562 leukemia): > 100 µM
- TGI (OVCAR-5 ovarian): > 100 µM
- TGI (SK-MEL-5 melanoma): > 100 µM
- TGI (LXFL 529 NSCLC): > 100 µM
- TGI (OVCAR-4 ovarian): > 100 µM
- TGI (SK-MEL-2 melanoma): > 100 µM
- TGI (IGROV1 ovarian): > 100 µM
- TGI (HT29 colon): > 100 µM
- TGI (SF-268 CNS): > 100 µM
- TGI (SW-620 colon): > 100 µM
- TGI (UACC-62 melanoma): > 100 µM
- TGI (OVCAR-3 ovarian): > 100 µM
- TGI (M14 melanoma): > 100 µM
- TGI (NCI-H23 lung): > 100 µM
- TGI (SK-MEL-28 melanoma): > 100 µM
- TGI (M19-MEL melanoma): > 100 µM
- TGI (MALME-3M melanoma): > 100 µM
- TGI (SK-OV-3 ovarian): > 100 µM
- TGI (SF-295 CNS): > 100 µM
- TGI (SNB-78 CNS): > 100 µM
- TGI (KM20L2 colon): > 100 µM
- TGI (HOP-18 NSCLC): > 100 µM
- TGI (ACHN renal): > 100 µM
- TGI (CAKI-1 renal): > 100 µM
- TGI (UO-31 renal): > 100 µM
- TGI (SNB-75 CNS): > 100 µM
- TGI (HOP-92 NSCLC): > 100 µM
- TGI (RXF 393 renal): > 100 µM
- TGI (KM12 colon): > 100 µM
- TGI (A498 renal): > 100 µM
- TGI (HOP-62 NSCLC): > 100 µM
- TGI (CCRF-CEM leukemia): > 100 µM
- TGI (NCI-H226 lung): > 100 µM
- TGI (A549 NSCLC): > 100 µM
- TGI (LOX IMVI melanoma): > 100 µM
- TGI (DLD-1 colon): > 100 µM
- TGI (HL-60(TB) leukemia): > 100 µM
- TGI (XF 498 CNS): > 100 µM
- TGI (NCI-H460 lung): > 100 µM
- TGI (DMS 273 small cell lung): > 100 µM
- TGI (COLO 205 colon): > 100 µM
- TGI (HCC-2998 colon): > 100 µM
- TGI (UACC-257 melanoma): > 100 µM
- TGI (786-0 renal): > 100 µM
- TGI (SF-539 CNS): > 100 µM
- TGI (U251 CNS): > 100 µM
- TGI (RPMI-8226 leukemia): > 100 µM
- TGI (HCT-15 colon): > 100 µM
- TGI (SN12C renal): > 100 µM
- TGI (MOLT-4 leukemia): > 100 µM

Source: PubChem BioAssay (NCI)
